Patent US7196110B2, “N-substituted tricyclic 3-aminopyrazoles as inhibitors for the treatment of cell proliferative disorders” (Janssen Phamaceutica N.V., priority 2002, dated 2007)

Biological target: T1, PDGF-receptor beta enzyme comprising the tyrosine kinase domain (Homo sapiens, UniProt P09619)
T1 construct: from amino acid 545 to 1106 of GenBank Access NO: AAA36427
Experiment: Inhibition of PDGF-receptor kinase activity (cell-free, PLC1 peptide, 33P Flashplate)
Format: biochemical
Details: PDGF-R kinase activity; for inhibition at 10 µM: compound at 10 uM, read-out: Percent Inhibition @ 10 uM; for IC50: read-out: IC50
Summary of the method: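 Recombinant kinase domain (aa 545–1106) phosphorylated a biotinylated PLC1 peptide with 5 μM ATP plus 33P-γ-ATP, in Tris pH 8, MgCl2, Na3VO4 and 1 mM DTT, for 60 min at 30 °C. Retained 33P was counted after washing. IC50 is the concentration halving activity versus no-inhibitor reactions.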

T1 sequence (P09619 545-1106): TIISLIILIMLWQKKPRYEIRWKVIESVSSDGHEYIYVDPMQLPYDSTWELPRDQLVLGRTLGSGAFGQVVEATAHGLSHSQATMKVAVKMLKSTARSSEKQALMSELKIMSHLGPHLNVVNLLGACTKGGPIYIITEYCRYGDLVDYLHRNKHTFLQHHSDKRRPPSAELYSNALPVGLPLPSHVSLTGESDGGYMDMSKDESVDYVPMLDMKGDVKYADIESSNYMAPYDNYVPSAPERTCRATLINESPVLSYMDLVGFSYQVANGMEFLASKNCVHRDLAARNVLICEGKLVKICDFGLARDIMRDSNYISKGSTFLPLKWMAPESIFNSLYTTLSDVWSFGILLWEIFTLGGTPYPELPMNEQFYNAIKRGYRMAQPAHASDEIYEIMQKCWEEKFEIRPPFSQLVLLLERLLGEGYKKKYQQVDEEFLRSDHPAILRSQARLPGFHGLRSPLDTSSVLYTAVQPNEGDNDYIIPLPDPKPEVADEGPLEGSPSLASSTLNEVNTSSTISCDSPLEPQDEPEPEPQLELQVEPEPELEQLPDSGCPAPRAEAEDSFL

| SMILES | inhibition at 10 µM | IC50 |
| --- | --- | --- |
| COC(=O)c1cccc(Nc2[nH]nc3c2Cc2cc4c(cc2-3)OCO4)c1 [Compound 127, 3-(2,9-Dihydro-5,7-dioxa-2,3-diaza-cyclopenta[a]-s-indacen-1-ylamino)-benzoic acid methyl ester] | 89% | 421 nM |
| COc1cccc(Nc2[nH]nc3c2Cc2cc(OCCCN4CCOCC4)c(OC)cc2-3)c1 [Compound 131, [7-Methoxy-6-(3-morpholin-4-yl-propoxy)-2,4-dihydro-indeno[1,2-c]pyrazol-3-yl]-(3-methoxy-phenyl)-amine] | 97% | 13 nM |
| COCCCOc1ccc2c(c1)Cc1c-2n[nH]c1Nc1cccc(Cl)c1 [Compound 135, (3-Chloro-phenyl)-[6-(3-methoxy-propoxy)-2,4-dihydro-indeno[1,2-c]pyrazol-3-yl]-amine] | 87% | 202 nM |
| COCCCOc1ccc2c(c1)Cc1c-2n[nH]c1Nc1ccc(F)cc1 [Compound 136, (4-Fluoro-phenyl)-[6-(3-methoxy-propoxy)-2,4-dihydro-indeno[1,2-c]pyrazol-3-yl]-amine] | 64.5% | 1330 nM |
| COCCCOc1ccc2c(c1)Cc1c-2n[nH]c1Nc1cccc(C(=O)OC)c1 [Compound 137, 3-[6-(3-Methoxy-propoxy)-2,4-dihydro-indeno[1,2-c]pyrazol-3-ylamino]-benzoic acid methyl ester] | 71% | 2110 nM |
| COCCCOc1ccc2c(c1)Cc1c-2n[nH]c1Nc1cccc(F)c1 [Compound 138, (3-Fluoro-phenyl)-[6-(3-methoxy-propoxy)-2,4-dihydro-indeno[1,2-c]pyrazol-3-yl]-amine] | 79.5% | 301 nM |
| COCCCOc1ccc2c(c1)Cc1c-2n[nH]c1Nc1cccc(OC)c1 [Compound 139, (3-Methoxy-phenyl)-[6-(3-methoxy-propoxy)-2,4-dihydro-indeno[1,2-c]pyrazol-3-yl]-amine] | 80% | 98.2 nM |
| COCCCOc1ccc2c(c1)Cc1c-2n[nH]c1Nc1cccc(Br)c1 [Compound 141, (3-Bromo-phenyl)-[6-(3-methoxy-propoxy)-2,4-dihydro-indeno[1,2-c]pyrazol-3-yl]-amine] | 83.5% | 319 nM |
| COCCCOc1ccc2c(c1)Cc1c-2n[nH]c1Nc1cccnc1 [Compound 142, [6-(3-Methoxy-propoxy)-2,4-dihydro-indeno[1,2-c]pyrazol-3-yl]-pyridin-3-yl-amine] | 82.5% | 453 nM |
| COCCCOc1ccc2c(c1)Cc1c-2n[nH]c1Nc1ccc(OC)cc1 [Compound 143, (4-Methoxy-phenyl)-[6-(3-methoxy-propoxy)-2,4-dihydro-indeno[1,2-c]pyrazol-3-yl]-amine] | 67% | 8120 nM |
| COc1cccc2c1Cc1c-2n[nH]c1Nc1ccc(F)cc1 [Compound 144, (4-Fluoro-phenyl)-(5-methoxy-2,4-dihydro-indeno[1,2-c]pyrazol-3-yl)-amine] | 96.5% | 836 nM |
| COc1ccc(Nc2[nH]nc3c2Cc2c(OC)cccc2-3)cc1 [Compound 145, (5-Methoxy-2,4-dihydro-indeno[1,2-c]pyrazol-3-yl)-(4-methoxy-phenyl)-amine] | 48.5% | 13900 nM |
| COc1cccc2c1Cc1c-2n[nH]c1Nc1cccnc1 [Compound 146, (5-Methoxy-2,4-dihydro-indeno[1,2-c]pyrazol-3-yl)-pyridin-3-yl-amine] | 78.5% | 160 nM |
| COc1ccc(OC)c(Nc2[nH]nc3c2Cc2c(OC)cccc2-3)c1 [Compound 147, (2,5-Dimethoxy-phenyl)-(5-methoxy-2,4-dihydro-indeno[1,2-c]pyrazol-3-yl)-amine] | 32% | 2980 nM |
| COc1ccc(Nc2[nH]nc3c2Cc2c(OC)cccc2-3)c(OC)c1 [Compound 148, (2,4-Dimethoxy-phenyl)-(5-methoxy-2,4-dihydro-indeno[1,2-c]pyrazol-3-yl)-amine] | 57% | 8600 nM |
| COc1cccc2c1Cc1c-2n[nH]c1Nc1cccc(OC(F)(F)F)c1 [Compound 149, (5-Methoxy-2,4-dihydro-indeno[1,2-c]pyrazol-3-yl)-(3-trifluoromethoxy-phenyl)-amine] | 27.5% | 8370 nM |
| COc1cccc2c1Cc1c-2n[nH]c1Nc1cccc(C(F)(F)F)c1 [Compound 150, (5-Methoxy-2,4-dihydro-indeno[1,2-c]pyrazol-3-yl)-(3-trifluoromethyl-phenyl)-amine] | 85% | 823 nM |
| Fc1cccc(Nc2[nH]nc3c2Cc2cc(Br)ccc2-3)c1 [Compound 151, (6-Bromo-2,4-dihydro-indeno[1,2-c]pyrazol-3-yl)-(3-fluoro-phenyl)-amine] | 79% | 91.8 nM |
| Brc1ccc2c(c1)Cc1c-2n[nH]c1Nc1cccnc1 [Compound 152, (6-Bromo-2,4-dihydro-indeno[1,2-c]pyrazol-3-yl)-pyridin-3-yl-amine] | 80% | 174 nM |
| Fc1ccc(F)c(Nc2[nH]nc3c2Cc2cc(Br)ccc2-3)c1 [Compound 153, (6-Bromo-2,4-dihydro-indeno[1,2-c]pyrazol-3-yl)-(2,5-difluoro-phenyl)-amine] | 79% | 1030 nM |

The remaining lines, values ahead:

| inhibition at 10 µM | IC50 | SMILES |
| --- | --- | --- |
| 29% | 41600 nM | FC(F)(F)Oc1cccc(Nc2[nH]nc3c2Cc2cc(Br)ccc2-3)c1 [Compound 154, (6-Bromo-2,4-dihydro-indeno[1,2-c]pyrazol-3-yl)-(3-trifluoromethoxy-phenyl)-amine] |
| 53% | 8110 nM | FC(F)(F)c1cccc(Nc2[nH]nc3c2Cc2cc(Br)ccc2-3)c1 [Compound 155, (6-Bromo-2,4-dihydro-indeno[1,2-c]pyrazol-3-yl)-(3-trifluoromethyl-phenyl)-amine] |
| 87.5% | 186 nM | Brc1ccc2c(c1)Cc1c-2n[nH]c1Nc1ccccc1 [Compound 158, (6-Bromo-2,4-dihydro-indeno[1,2-c]pyrazol-3-yl)-phenyl-amine] |
| 92.5% | 98.9 nM | CN(C)CCCOc1ccc2c(c1)Cc1c-2n[nH]c1Nc1ccc(F)cc1 [Compound 159, [6-(3-Dimethylamino-propoxy)-2,4-dihydro-indeno[1,2-c]pyrazol-3-yl]-(4-fluoro-phenyl)-amine] |
| 84% | 382 nM | CN(C)CCCOc1ccc2c(c1)Cc1c-2n[nH]c1Nc1cccnc1 [Compound 161, [6-(3-Dimethylamino-propoxy)-2,4-dihydro-indeno[1,2-c]pyrazol-3-yl]-pyridin-3-yl-amine] |
| 21.5% | 54900 nM | COc1ccc(OC)c(Nc2[nH]nc3c2Cc2cc(OCCCN(C)C)ccc2-3)c1 [Compound 162, (2,5-Dimethoxy-phenyl)-[6-(3-dimethylamino-propoxy)-2,4-dihydro-indeno[1,2-c]pyrazol-3-yl]-amine] |
| 32% | 22700 nM | CN(C)CCCOc1ccc2c(c1)Cc1c-2n[nH]c1Nc1cc(F)ccc1F [Compound 163, (2,5-Difluoro-phenyl)-[6-(3-dimethylamino-propoxy)-2,4-dihydro-indeno[1,2-c]pyrazol-3-yl]-amine] |
| 92.5% | 101 nM | CN(C)CCCOc1ccc2c(c1)Cc1c-2n[nH]c1Nc1cccc(C(F)(F)F)c1 [Compound 165, [6-(3-Dimethylamino-propoxy)-2,4-dihydro-indeno[1,2-c]pyrazol-3-yl]-(3-trifluoromethyl-phenyl)-amine] |
| 88% | 85 nM | COCCCOc1cc2c(cc1OC)-c1n[nH]c(Nc3ccc(F)c(Cl)c3)c1C2 [Compound 166, (3-Chloro-4-fluoro-phenyl)-[7-methoxy-6-(3-methoxy-propoxy)-2,4-dihydro-indeno[1,2-c]pyrazol-3-yl]-amine] |
| 92% | 511 nM | CC(C)Oc1cc2c(cc1OC(C)C)-c1n[nH]c(Nc3ccc(F)c(Cl)c3)c1C2 [Compound 167, (3-Chloro-4-fluoro-phenyl)-(6,7-diisopropoxy-2,4-dihydro-indeno[1,2-c]pyrazol-3-yl)-amine] |
| 91% | 68.8 nM | COc1cccc(Nc2[nH]nc3c2Cc2cc(OC(C)C)c(OC(C)C)cc2-3)c1 [Compound 168, (6,7-Diisopropoxy-2,4-dihydro-indeno[1,2-c]pyrazol-3-yl)-(3-methoxy-phenyl)-amine] |
| 89% | 36 nM | CC(C)Oc1cc2c(cc1OC(C)C)-c1n[nH]c(Nc3cccc(F)c3)c1C2 [Compound 169, (6,7-Diisopropoxy-2,4-dihydro-indeno[1,2-c]pyrazol-3-yl)-(3-fluoro-phenyl)-amine] |
| 92.5% | 123 nM | COc1ccc(Nc2[nH]nc3c2Cc2ccc(OC)cc2-3)cc1 [Compound 171, (7-Methoxy-2,4-dihydro-indeno[1,2-c]pyrazol-3-yl)-(4-methoxy-phenyl)-amine] |
| 87% | 215 nM | COc1ccc2c(c1)-c1n[nH]c(Nc3cccnc3)c1C2 [Compound 173, (7-Methoxy-2,4-dihydro-indeno[1,2-c]pyrazol-3-yl)-pyridin-3-yl-amine] |
| 83% | 346 nM | COc1ccc(OC)c(Nc2[nH]nc3c2Cc2ccc(OC)cc2-3)c1 [Compound 174, (2,5-Dimethoxy-phenyl)-(7-methoxy-2,4-dihydro-indeno[1,2-c]pyrazol-3-yl)-amine] |
| 71% | 3930 nM | COc1ccc(Nc2[nH]nc3c2Cc2ccc(OC)cc2-3)c(OC)c1 [Compound 175, (2,4-Dimethoxy-phenyl)-(7-methoxy-2,4-dihydro-indeno[1,2-c]pyrazol-3-yl)-amine] |
